Tested on in the first data set: not given
Test: not given
Conditions: not given
Chain of hSUR1/hKir6.2 (Q09428 whole entry): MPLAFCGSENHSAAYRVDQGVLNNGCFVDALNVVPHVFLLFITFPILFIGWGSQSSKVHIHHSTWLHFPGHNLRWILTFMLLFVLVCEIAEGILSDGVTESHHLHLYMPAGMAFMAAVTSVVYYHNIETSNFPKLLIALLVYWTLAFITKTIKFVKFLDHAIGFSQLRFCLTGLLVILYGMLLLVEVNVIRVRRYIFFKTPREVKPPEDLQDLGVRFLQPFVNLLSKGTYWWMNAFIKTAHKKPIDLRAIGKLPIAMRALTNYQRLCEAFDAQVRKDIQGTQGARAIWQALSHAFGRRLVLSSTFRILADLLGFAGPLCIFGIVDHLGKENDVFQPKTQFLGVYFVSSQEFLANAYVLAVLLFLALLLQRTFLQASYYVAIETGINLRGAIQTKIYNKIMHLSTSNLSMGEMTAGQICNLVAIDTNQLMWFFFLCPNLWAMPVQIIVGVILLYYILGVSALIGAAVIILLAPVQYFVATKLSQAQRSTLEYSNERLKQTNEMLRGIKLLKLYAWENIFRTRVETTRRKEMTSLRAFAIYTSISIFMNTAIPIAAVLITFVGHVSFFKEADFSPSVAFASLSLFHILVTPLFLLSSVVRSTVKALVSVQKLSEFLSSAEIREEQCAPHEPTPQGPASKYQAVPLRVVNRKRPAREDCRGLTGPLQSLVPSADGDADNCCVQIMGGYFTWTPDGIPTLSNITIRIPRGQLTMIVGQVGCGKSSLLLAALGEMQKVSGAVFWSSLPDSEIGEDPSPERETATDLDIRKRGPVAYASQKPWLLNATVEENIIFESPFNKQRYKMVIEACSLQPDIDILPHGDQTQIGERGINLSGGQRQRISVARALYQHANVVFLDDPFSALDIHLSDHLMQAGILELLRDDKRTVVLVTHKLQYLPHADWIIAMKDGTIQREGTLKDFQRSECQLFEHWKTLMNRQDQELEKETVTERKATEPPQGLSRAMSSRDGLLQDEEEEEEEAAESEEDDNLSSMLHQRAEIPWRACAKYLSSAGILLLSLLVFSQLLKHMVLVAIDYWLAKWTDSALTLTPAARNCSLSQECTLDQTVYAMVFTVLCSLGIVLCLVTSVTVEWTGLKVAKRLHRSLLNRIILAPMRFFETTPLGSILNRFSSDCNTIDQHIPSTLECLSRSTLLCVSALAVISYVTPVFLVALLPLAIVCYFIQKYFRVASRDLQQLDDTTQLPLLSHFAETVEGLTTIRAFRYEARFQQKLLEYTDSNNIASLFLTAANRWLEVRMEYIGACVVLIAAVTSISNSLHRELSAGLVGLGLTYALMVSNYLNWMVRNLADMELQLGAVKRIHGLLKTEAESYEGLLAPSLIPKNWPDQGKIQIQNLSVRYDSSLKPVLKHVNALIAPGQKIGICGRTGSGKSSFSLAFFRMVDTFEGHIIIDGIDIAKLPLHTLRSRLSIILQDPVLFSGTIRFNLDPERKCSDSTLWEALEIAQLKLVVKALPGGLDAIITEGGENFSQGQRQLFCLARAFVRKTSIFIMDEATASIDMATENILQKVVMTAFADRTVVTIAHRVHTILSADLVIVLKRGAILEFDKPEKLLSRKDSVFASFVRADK
Chain of hSUR1/hKir6.2 (Q14654 whole entry): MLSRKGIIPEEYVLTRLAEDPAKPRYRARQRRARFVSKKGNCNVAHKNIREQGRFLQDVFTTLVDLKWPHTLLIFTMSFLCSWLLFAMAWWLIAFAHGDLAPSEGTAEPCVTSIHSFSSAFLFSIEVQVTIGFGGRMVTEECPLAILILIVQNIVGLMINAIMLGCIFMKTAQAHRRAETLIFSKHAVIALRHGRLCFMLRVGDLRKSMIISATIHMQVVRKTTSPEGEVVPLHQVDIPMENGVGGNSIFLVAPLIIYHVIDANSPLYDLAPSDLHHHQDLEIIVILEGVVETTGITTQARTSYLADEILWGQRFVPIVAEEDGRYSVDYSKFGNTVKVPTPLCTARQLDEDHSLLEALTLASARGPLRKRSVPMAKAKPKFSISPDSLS
As to `CNC(=S)NS(=O)(=O)c1cc(CCNC(=O)c2cnc3ccccc3c2)ccc1OC` [Example 1, 1-[5-(2-(3-Quinolinecarboxamido)ethyl)-2-methoxyphenylsulfonyl]-3-methyl-thiourea], the melting point – broadly, the temperature, or range, at which the solid turns liquid – was determined as 85 °C. `CNC(=O)NS(=O)(=O)c1cc(CCNC(=O)c2cnc3ccccc3c2)ccc1OCCOCC(F)(F)F` [Example 6, 1-[5(2-(3Quinolinecarboxamido)ethyl)-2-(2(2,2,2-trifluoroethoxy)ethoxy)phenyl-sulfonyl]-3-methyl-urea] had a melting point of 128 °C. Same read-out and setting: under `CCOc1ccc(CCNC(=O)c2cnc3ccccc3c2)cc1S(=O)(=O)NC(=S)NC` [Example 7, 1-[5-(2-(3-Quinolinecarboxamido)ethyl)-2-ethoxyphenylsulfonyl]-3-methyl-thiourea] stands 189 to 193 °C. The same measure, in the same setting: the value for `CCCOc1ccc(CCNC(=O)c2cnc3ccccc3c2)cc1S(=O)(=O)NC(=O)NC` [Example 9] was 120 °C; that for `CCOCCOc1ccc(CCNC(=O)c2cnc3ccccc3c2)cc1S(=O)(=O)NC(=S)NC` [Example 10, 1-[5-(2-(3-Quinolinecarboxamido)ethyl)-2-(2-ethoxyethoxy)phenylsulfonyl]-3-methyl-thiourea] was 50 to 52 °C. On the same count and under the same terms, the value for `CNC(=S)NS(=O)(=O)c1cc(CCNC(=O)c2cnc3ccccc3c2)ccc1OCCOc1ccccc1` [Example 11, 1-[5-(2-(3-Quinolinecarboxamido)ethyl)-2-(2-phenoxyethoxy)phenylsulfonyl]-3-methyl-thiourea] was 110 °C; that for `CNC(=S)NS(=O)(=O)c1cc(CCNC(=O)c2cnc3ccccc3c2)ccc1OCCc1ccccc1` [Example 12, 1-[5-(2-(3-Quinolinecarboxamido)ethyl)-2-(2-phenylethoxy)phenylsulfonyl]-3-methyl-thiourea] was 124 °C. In the case of `CNC(=S)NS(=O)(=O)c1cc(CCNC(=O)c2cnc3ccccc3c2)ccc1OCC(F)(F)F` [Example 13, 1-[5-(2-(3-Quinolinecarboxamido)ethyl)-2-(2,2,2-trifluoroethoxy)phenylsulfonyl]-3-methyl-thiourea], the melting point is 75 °C. The same measure, in the same setting: under `CNC(=S)NS(=O)(=O)c1cc(CCNC(=O)c2cnc3ccccc3c2)ccc1-c1ccco1` [Example 14, 1-[5-(2-(3-Quinolinecarboxamido)ethyl)-2-(2-furyl)phenylsulfonyl]-3-methyl-thiourea] stands 155 to 156 °C; under `CNC(=S)NS(=O)(=O)c1cc(CCNC(=O)C=C(C)C)ccc1OC` [Example 15, 1-[5-(2-(3-Methylbut-2-eneamido)ethyl)-2-methoxyphenylsulfonyl]-3-methyl-thiourea], 153 to 154 °C. On the same count and under the same terms, the value for `CNC(=O)NS(=O)(=O)c1cc(CCNC(=O)C=C(C)C)ccc1OC` [Example 16, 1-[5-(2-(3-Methylbut-2-eneamido)ethyl)-2-methoxyphenylsulfonyl]-3-methyl-urea] was 199 to 203 °C; that for `CNC(=S)NS(=O)(=O)c1cc(CCNC(=O)C2=CCCCC2)ccc1OC` [Example 18, 1-[5-(2-(1-Cyclohex-1-enecarboxamido)ethyl)-2-methoxyphenylsulfonyl]-3-methyl-thiourea] was 179 to 182 °C.

Compound `CNC(=O)NS(=O)(=O)c1cc(CCNC(=O)C2=CCCCC2)ccc1OC` [Example 19, 1-[5-(2-(1-Cyclohex-1-enecarboxamido)ethyl)-2-methoxyphenylsulfonyl]-3-methyl-urea] gave a melting point of 175 °C.

In turn, `CNC(=S)NS(=O)(=O)c1cc(CCNC(=O)C2=CCCCC2)ccc1OCCOC` [Example 22, 1-[5-(2-(1-Cyclohex-1-enecarboxamido)ethyl)-2-(2-methoxyethoxy)phenylsulfonyl]-3-methyl-thiourea] returned a melting point of 150 to 155 °C.

Another data set concerns chloroform-induced ventricular fibrillation in the mouse. Kind of data set: Chloroform-induced ventricular fibrillation in the mouse. The class given is in vivo. The note with it: 3 mg/kg i.p., 30 min before chloroform anesthesia; untreated control 100%. An excerpt: Chloroform-induced Ventricular Fibrillation in the Mouse (Action in the Case of Vagal Dysfunction)
Hypoactivity of the vagal nervous system leads to hyperactivity of the sympathetic nervous system. Damages to health that result from an inequilibrium of the autonomic nervous system when the dysfunction affects the heart include the weakening of the myocardial contractile force and fatal cardiac arrhythmias such as ventricular fibrillation. The action of the test compounds was investigated in the model of chloroform-induced ventricular fibrillation in the mouse (see J. W. Lawson, Antiarrhythmic activity of some isoquinoline derivatives determined by a rapid screening procedure in the mouse; J. Pharmacol. Exp. Ther. 160 (1968) 22).
The test compound was dissolved in a mixture of dimethyl sulfoxide (DMSO) and 10 percent sodium hydrogencarbonate solution and administered intraperitoneally (i.p.). The dose was 3 mg/kg. 30 min later, the mouse was anesthetized with chloroform in a beaker. As soon as respiratory arrest had occurred under deep anesthesia (toxic stage of anesthesia), the thorax of the animal was opened using a pair of scissors and the heartbeat was visually inspected. It can be determined here at a glance whether the heart is beating, fibrillating, or has stopped. […]
Turning to `COc1ccc(CCNC(=O)C2=CCCCC2)cc1S(=O)(=O)NC(=S)NC1CCCCC1` [Example 21, 1-[5-(2-(1-Cyclohex-1-enecarboxamido)ethyl)-2-methoxyphenylsulfonyl]-3-cyclohexyl-thiourea], the “Fibrillation ratio (in %)” value stood at 70%.

The target in a further data set is hSUR1/hKir6.2 (Homo sapiens, UniProt Q09428+Q14654). The data set is described as follows: Action on hSUR1/hKir6.2-transfected CHO cells (membrane potential, DIBAC4 fluorescence, FLIPR). The class given is cell-based. The note with it: 10 μM; CHO cells activated with diaxozide. From the text:
Action on hSUR1/hKir6.2-transfected CHO Cells (Hypoglycemic Action)
The target organ of these compounds is the […] of the pancreas where they block ATP-sensitive potassium channels and produce a release of the hypoglycemic hormone insulin by influencing the electrical potential of the cell membrane.
The extent of this depolarization of the cell membrane, which is caused by the compounds according to the invention, was investigated on CHO cells that were transfected with the cloned components of human pancreatic ATP-sensitive potassium channels, hSUR1, and hKir6.2, and activated by pretreatment with diaxozide, an opener of ATP-sensitive potassium channels. The potency of a compound with respect to the membrane potential of these transfected and activated CHO cells is a measure of the hypoglycemic potential of this compound.
On the day of measurement, the microtiter plates were washed three times with PBS (physiological buffer solution). In the last washing step, 90 μl remained in each well. The cells were then loaded with the fluorescent dye DIBAC4 (Molecular Probes, Portland, Oreg., USA) by addition of 90 μl of a 10-micromolar solution of DIBAC4 in PBS and of 90 μl of a 400 micromolar solution of diaxozide in PBS to each well. After an incubation time of 30 min at 37° C., the microtiter plates were then transferred to a fluorescent microtiter plate reader (FLIPR; Molecular Devices, Sunnyvale, Calif., USA). The cells were stimulated by means of an argon laser (Innova 90; Coherent, Santa Clara, Calif., USA) at a wavelength of 488 nm and the fluorescence emission was measured by means of a CCD camera. The measurement of the membrane potential began after 4 min by addition of 20 μl of a solution of the test compound or of the control solution to each well, the resulting fluorescence emission being measured every 20 seconds for a period of 20 min. The data shown are mean values of at least 4 experiments.
Turning to `CNC(=S)NS(=O)(=O)c1cc(CCNC(=O)c2cnc3ccccc3c2)ccc1OCCOC` [Example 2, 1-[5-(2-(3-Quinolinecarboxamido)ethyl)-2-(2-methoxyethoxy)phonylsulfonyl]-3-methyl-thiourea], the “Blockade hSUR1/hKir6.2” value turned out to be 6.1%.

For `CNC(=O)NS(=O)(=O)c1cc(CCNC(=O)c2cnc3ccccc3c2)ccc1OCCOC` [Example 3, 1-[5-(2-(3-Quinolinecarboxamido)ethyl)-2-(2-methoxyethoxy)phenylsulfonyl]-3-methyl-urea], the “Blockade hSUR1/hKir6.2” value is listed as 0%. Same read-out and setting: the value for `CNC(=S)NS(=O)(=O)c1cc(CCNC(=O)c2cnc3ccccc3c2)ccc1OCCOCC(F)(F)F` [Example 4, 1-[5-(2-(3-Quinolinecarboxamido)ethyl)-2-(2-(2,2,2-trifluoroethoxy)ethoxy)phenyl-sulfonyl]-3-methyl-thiourea] was 69.8%. On the same count and under the same terms, the value for `CNC(=S)NS(=O)(=O)c1cc(CCNC(=O)c2cnc3ccccc3c2)ccc1OCCOc1ccccc1` [Example 11, 1-[5-(2-(3-Quinolinecarboxamido)ethyl)-2-(2-phenoxyethoxy)phenylsulfonyl]-3-methyl-thiourea] was 67.5%.

In the next data set the test system is papillary muscle of the guinea pig. Kind of data set: Action potential duration on the papillary muscle of the guinea pig (hypoxia-shortened APD90). The note with it: 2 μM; 60 min after addition; relative to shortening caused by hypoxia. An excerpt: Action Potential Duration on the Papillary Muscle of the Guinea Pig
ATP deficiency states observed during ischemia in the cardiac muscle cell, lead to a shortening of the action potential duration (ATP=adenosine triphosphate). They are regarded as one of the causes of so-called reentry arrhythmias, which can cause sudden cardiac death. The opening of ATP-sensitive potassium channels by the lowering of the ATP level is regarded as the cause of this. For the measurement of the action potential on the papillary muscle of the guinea pig a standard microelectrode technique was employed.
Guinea pigs of both sexes were killed by a blow to the head, the hearts were removed, and the papillary muscles were separated out and suspended in an organ bath. The organ bath was rinsed with Ringer's solution (136 mmol/l of NaCl, 3.3 mmol/l of KCl, 2.5 mmol/l of CaCl2, 1.2 mmol/l of KH2PO4, 1.1 mmol/l of MgSO4, 5.0 mmol/l of glucose, 10.0 mmol/l of 1-(2-hydroxyethyl)piperazine4-(2-ethanesulfonic acid) (HEPES), pH adjusted to 7.4 with NaOH) and aerated with 100% oxygen at a temperature of 37° C. The muscle was stimulated with square-wave pulses of 1 V and 1 ms duration and a frequency of 1 Hz by means of an electrode. The action potential was derived and recorded by means of a glass microelectrode inserted intracellularly, which was filled with 3 mol/l of KCl solution. The compound to be tested was added to the Ringer's solution in a concentration of 2 μmol/l. The action potential was amplified using an amplifier from Hugo Sachs (March-Hugstetten, Germany) and stored and analyzed by means of a computer. The duration of the action potential was determined at a degree of repolarization of 90% (APD90). After an equilibration time of 30 min, the action potential shortening was produced by rinsing the papillary muscle with a hypoxic NaCl solution. The glucose was removed here, the HEPES buffer replaced by PIPES buffer (piperazine-1,4-bis(2-ethanesulfonic acid)), the pH was adjusted to 6.5 and the aeration was carried out using 100% nitrogen. After a time of 60 min, this led to a marked shortening of the APD90. After this time, the test compound was added and the relengthening of the action potential recorded after a further 60 min. The compound-caused relengthening of the APD90 was calculated as a percentage, in relation to the shortening caused by hypoxia. The test compounds were added to the bath solution as stock solution in propanediol.
The following relengthenings of the APD90 values were observed.
`CNC(=S)NS(=O)(=O)c1cc(CCNC(=O)c2cnc3ccccc3c2)ccc1OCCOC` [Example 2, 1-[5-(2-(3-Quinolinecarboxamido)ethyl)-2-(2-methoxyethoxy)phonylsulfonyl]-3-methyl-thiourea]: the “Relengthening of the APD90 shortened by hypoxia” value is listed as 42%.

Regarding `CNC(=S)NS(=O)(=O)c1cc(CCNC(=O)c2cnc3ccccc3c2)ccc1OCCOCC(F)(F)F` [Example 4, 1-[5-(2-(3-Quinolinecarboxamido)ethyl)-2-(2-(2,2,2-trifluoroethoxy)ethoxy)phenyl-sulfonyl]-3-methyl-thiourea], the “Relengthening of the APD90 shortened by hypoxia” value is 69%. The same measure, in the same setting: under `CCCOc1ccc(CCNC(=O)c2cnc3ccccc3c2)cc1S(=O)(=O)NC(=S)NC` [Example 8, 1-[5-(2-(3-Quinolinecarboxamido)ethyl)-2-propyloxyphenylsulfonyl]-3-methyl-thiourea] stands 35%; under `CNC(=S)NS(=O)(=O)c1cc(CCNC(=O)C=C(C)C)ccc1OCCOC` [Example 17, 1-[5-(2-(3-Methylbut-2-eneamido)ethyl)-2-(2-methoxyethoxy)phenylsulfonyl]-3-methyl-thiourea], 34%.

For the origin of these results see patent US6511989B2, “Acylaminoalkyl-substituted benzenesulfonamide derivatives, their preparation, their use and pharmaceutical preparations comprising them” (Aventis Pharma Deutschland GmbH, priority 2000, dated 2003).
